According to patent US20230365559A1, “NOVEL AMINOPYRIDINES AND THEIR USE IN TREATING CANCER” (priority 2020, published 2023):
Where two headings read alike, the source gives them in different places.

Tests used:
Ser2056 of DNA-PKcs = Ser2056 of DNA-PKcs (Homo sapiens, UniProt P78527); experiment: Inhibition of cellular autophosphorylation at Ser2056 of DNA-PKcs in UT-SCC-54C cells, western immunoblotting; format: cell-based; details: oxia, 10 Gy, FIG. 7 (10 μM)
[1] = target: T1, Ser1981 of ataxia-telangiectasia mutated (ATM) (Homo sapiens, UniProt Q13315); experiment: Inhibition of phosphorylation of Ser1981 of ATM in UT-SCC-54C cells, western immunoblotting; format: cell-based; details: oxia, 10 Gy, FIG. 7 (10 μM)
T1 construct: Ser1981 of ataxia-telangiectasia mutated (ATM) in UT-SCC-54C cells

UT-SCC-54C cells [2] = experiment: Radiosensitisation of UT-SCC-54C HNSCC cells, clonogenic survival, oxic and anoxic (Table 18); format: cell-based, human
ATR/ATRIP = ATR/ATRIP (Homo sapiens, UniProt Q13535); experiment: ATR/ATRIP Human PIKK Kinase Enzymatic Radiometric Assay, KinaseProfiler (Eurofins Discovery); format: biochemical; details: Km ATP, Table 15, read-out: Inhibition of PIKK kinase activity ATR
Sequence of ATR/ATRIP (Q13535 whole entry): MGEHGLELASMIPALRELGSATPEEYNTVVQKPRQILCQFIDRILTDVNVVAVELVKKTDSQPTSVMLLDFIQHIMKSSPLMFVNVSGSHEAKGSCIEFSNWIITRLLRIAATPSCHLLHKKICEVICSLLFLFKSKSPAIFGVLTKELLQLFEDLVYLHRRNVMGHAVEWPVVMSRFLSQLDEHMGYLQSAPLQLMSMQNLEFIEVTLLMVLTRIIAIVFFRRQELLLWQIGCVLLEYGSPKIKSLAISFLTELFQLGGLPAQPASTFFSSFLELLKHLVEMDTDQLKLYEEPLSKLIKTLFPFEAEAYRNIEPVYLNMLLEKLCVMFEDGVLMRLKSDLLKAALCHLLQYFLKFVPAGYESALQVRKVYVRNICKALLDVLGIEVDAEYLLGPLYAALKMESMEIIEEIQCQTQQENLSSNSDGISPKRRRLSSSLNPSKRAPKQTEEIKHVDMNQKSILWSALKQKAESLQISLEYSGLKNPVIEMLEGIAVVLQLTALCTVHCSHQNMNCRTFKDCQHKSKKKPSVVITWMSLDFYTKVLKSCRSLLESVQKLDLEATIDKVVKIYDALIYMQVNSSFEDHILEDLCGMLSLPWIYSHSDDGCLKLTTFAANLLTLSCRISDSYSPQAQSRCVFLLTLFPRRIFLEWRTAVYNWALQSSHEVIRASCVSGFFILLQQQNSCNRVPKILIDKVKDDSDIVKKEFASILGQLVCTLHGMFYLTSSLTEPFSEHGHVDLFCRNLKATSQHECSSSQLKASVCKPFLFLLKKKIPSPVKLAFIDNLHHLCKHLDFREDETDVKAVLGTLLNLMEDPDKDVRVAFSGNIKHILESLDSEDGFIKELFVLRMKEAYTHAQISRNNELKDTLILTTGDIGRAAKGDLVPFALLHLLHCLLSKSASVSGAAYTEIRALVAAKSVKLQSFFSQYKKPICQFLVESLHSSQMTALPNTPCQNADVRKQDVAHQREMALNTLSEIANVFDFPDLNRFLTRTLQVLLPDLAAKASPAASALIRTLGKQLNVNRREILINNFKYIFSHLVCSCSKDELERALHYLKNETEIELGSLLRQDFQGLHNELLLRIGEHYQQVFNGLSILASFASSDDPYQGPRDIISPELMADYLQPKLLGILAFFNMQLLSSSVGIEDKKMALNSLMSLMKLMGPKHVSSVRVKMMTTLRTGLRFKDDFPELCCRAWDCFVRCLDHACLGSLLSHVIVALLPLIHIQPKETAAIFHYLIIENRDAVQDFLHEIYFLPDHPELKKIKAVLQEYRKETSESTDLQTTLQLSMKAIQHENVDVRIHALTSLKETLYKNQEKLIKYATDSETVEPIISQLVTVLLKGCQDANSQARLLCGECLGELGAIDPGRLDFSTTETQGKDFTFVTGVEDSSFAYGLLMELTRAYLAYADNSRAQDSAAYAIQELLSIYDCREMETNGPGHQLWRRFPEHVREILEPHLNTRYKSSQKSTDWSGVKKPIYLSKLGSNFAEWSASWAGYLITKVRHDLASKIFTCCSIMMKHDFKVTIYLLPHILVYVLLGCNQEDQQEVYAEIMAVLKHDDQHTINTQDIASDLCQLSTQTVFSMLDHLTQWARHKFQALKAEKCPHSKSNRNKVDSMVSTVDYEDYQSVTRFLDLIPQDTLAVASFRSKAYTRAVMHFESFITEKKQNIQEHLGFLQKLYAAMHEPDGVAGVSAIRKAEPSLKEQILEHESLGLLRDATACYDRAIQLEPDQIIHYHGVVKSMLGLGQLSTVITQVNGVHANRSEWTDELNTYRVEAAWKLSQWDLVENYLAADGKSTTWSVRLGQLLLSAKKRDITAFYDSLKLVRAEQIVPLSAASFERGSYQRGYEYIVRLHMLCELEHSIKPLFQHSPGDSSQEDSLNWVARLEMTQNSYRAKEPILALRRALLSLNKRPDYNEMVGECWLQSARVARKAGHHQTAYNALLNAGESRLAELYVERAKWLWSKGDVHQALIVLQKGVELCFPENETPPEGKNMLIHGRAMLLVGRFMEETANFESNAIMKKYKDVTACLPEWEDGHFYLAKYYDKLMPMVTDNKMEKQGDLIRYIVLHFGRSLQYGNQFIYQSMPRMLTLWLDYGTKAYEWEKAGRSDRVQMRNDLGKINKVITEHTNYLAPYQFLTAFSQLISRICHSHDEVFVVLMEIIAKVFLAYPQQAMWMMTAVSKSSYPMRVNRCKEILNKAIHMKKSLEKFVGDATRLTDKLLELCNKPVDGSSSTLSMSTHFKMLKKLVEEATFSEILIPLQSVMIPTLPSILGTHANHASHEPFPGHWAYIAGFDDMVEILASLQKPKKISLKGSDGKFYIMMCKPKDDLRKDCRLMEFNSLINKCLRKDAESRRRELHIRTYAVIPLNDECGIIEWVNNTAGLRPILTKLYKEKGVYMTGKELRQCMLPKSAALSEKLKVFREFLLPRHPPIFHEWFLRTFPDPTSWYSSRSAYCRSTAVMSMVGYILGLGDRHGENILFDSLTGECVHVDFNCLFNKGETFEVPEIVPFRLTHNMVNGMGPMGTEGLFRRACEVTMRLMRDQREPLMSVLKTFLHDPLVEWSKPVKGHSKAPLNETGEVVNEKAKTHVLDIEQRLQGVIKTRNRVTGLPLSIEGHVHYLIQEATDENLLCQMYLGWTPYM
Sequence of ATR/ATRIP (Q8WXE1 whole entry partner): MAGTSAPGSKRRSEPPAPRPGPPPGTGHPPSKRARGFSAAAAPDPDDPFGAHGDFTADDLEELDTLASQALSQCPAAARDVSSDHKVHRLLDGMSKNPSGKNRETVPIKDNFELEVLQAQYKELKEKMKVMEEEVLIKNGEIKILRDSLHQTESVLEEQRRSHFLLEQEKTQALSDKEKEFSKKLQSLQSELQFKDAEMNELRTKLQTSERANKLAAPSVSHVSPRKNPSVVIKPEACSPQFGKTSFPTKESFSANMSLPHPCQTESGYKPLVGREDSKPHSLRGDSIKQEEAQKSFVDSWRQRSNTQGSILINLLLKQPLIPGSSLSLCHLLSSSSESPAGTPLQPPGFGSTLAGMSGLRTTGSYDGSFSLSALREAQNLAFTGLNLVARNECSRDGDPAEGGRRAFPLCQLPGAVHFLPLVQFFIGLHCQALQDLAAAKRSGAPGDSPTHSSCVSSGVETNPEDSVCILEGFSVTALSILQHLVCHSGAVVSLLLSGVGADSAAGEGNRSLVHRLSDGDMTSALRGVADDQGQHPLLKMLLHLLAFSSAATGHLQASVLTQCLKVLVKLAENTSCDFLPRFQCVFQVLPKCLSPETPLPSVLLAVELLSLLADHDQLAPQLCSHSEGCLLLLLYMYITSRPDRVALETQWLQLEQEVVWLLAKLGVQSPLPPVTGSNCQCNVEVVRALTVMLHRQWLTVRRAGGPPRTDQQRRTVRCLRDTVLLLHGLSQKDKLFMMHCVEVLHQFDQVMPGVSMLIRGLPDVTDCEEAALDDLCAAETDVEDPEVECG

[3] = system: UT-SCC-54C tumour xenografts; experiment: Radiosensitisation of UT-SCC-54C HNSCC tumours, ex vivo clonogenic assay of tumour xenografts; format: in vivo, female NIH-III mice
UT-SCC-54C cells [4] = experiment: Radiosensitisation of UT-SCC-54C HNSCC cells, regrowth (sulforhodamine B) assay, oxic (Table 16); format: cell-based, human; details: for S50: compound in combination with 3 Gy of radiation, 50% inhibition of regrowth fraction, UT-SCC-54C, oxic
[5] = system: UT-SCC-54C tumour xenografts; experiment: Inhibition of UT-SCC-54C tumour growth, tumour xenograft study; format: in vivo, female NIH-III mice
HAP1 cells = experiment: Radiosensitisation of HAP1 wild type cells, regrowth assay; format: cell-based, human; details: for effect in unirradiated HAP1 cells: 0 Gy; for radiosensitisation / differential growth inhibition of HAP1 cells: 3 Gy cobalt-60 gamma irradiation relative to radiation-only
human DNA-PK = human DNA-PK (Homo sapiens, UniProt P78527); experiment: Inhibition of DNA-PKcs kinase activity, HotSpot assay (Reaction Biology), [γ-33P]-ATP phosphorylation of peptide substrate; format: biochemical
ATM = ATM (Homo sapiens, UniProt Q13315); experiment: ATM Human PIKK Kinase Enzymatic ELISA/EIA Assay, KinaseProfiler (Eurofins Discovery); format: biochemical; details: read-out: ATM, Percent of control at 1 μM
HAP1/PRKDC−/− cells = experiment: Radiosensitisation of DNA-PK null HAP1/PRKDC−/− cells, regrowth assay; format: cell-based, human
human PI3Kα (p110α/p85α) = human PI3Kα (p110α/p85α) (Homo sapiens, UniProt P42336); experiment: Inhibition of PI3Kα kinase activity, ADP-Glo Assay (Reaction Biology); format: biochemical; details: 10 μM ATP; mean of two replicates; Table 12; read-out: Inhibition of kinase activity (as IC50) PICK
human mTOR = human mTOR (Homo sapiens, UniProt P42345); experiment: Inhibition of mTOR kinase activity, HotSpot assay, phosphorylation of 4EPB1

Q: How did the “inhibition of Ser2056 on DNA-PKcs” value (Ser2056 of DNA-PKcs) turn out when `CC(C)n1c(=O)n(C)c2cnc3cc(F)c(-c4ccc(OCCCN5CCCCC5)nc4)cc3c21` [AZD1393, reference compound] was run?
A: The value was “did not affect”.

Q: What about the “inhibition of phosphorylation of Ser1981 on ATM” value [1] of the same molecule?
A: Its value is “inhibited”.

Q: Which results are given for `COc1ccc(Nc2cc3c(cn2)n(C)c(=O)n3C2CCOCC2)c(C)c1` [Compound 121, 6-((4-Methoxy-2-methylphenyl)amino)-3-methyl-1-(tetrahydro-2H-pyran-4-yl)-1,3-dihydro-2H-imidazo[4,5-c]pyridin-2-one]?
A: D1 (radiation dose for 1% surviving fraction) (UT-SCC-54C cells [2]; 0% O2, compound conc 1 μM): 11.7 Gy; D10 (radiation dose for 10% surviving fraction) (UT-SCC-54C cells [2]; 0% O2, compound conc 1 μM): 6.18 Gy; D1 (radiation dose for 1% surviving fraction) (UT-SCC-54C cells [2]; 20% O2, compound conc 0.33 μM): 1.29 Gy; D10 (radiation dose for 10% surviving fraction) (UT-SCC-54C cells [2]; 20% O2, compound conc 0.33 μM): 4.63 Gy; D10 (radiation dose for 10% surviving fraction) (UT-SCC-54C cells [2]; 20% O2, compound conc 1 μM): 2.65 Gy; D1 (radiation dose for 1% surviving fraction) (UT-SCC-54C cells [2]; 20% O2, compound conc 3 μM): 3.44 Gy; D10 (radiation dose for 10% surviving fraction) (UT-SCC-54C cells [2]; 20% O2, compound conc 3 μM): 1.73 Gy; radiosensitisation, clonogenic survival endpoint (UT-SCC-54C cells [2]; UT-SCC-54C, FIG. 8 and Table 18): concentration-dependent increases in radiosensitisation; radiosensitisation of UT-SCC-54C cells under oxic conditions (UT-SCC-54C cells [2]; oxic, clonogenic survival, FIG. 9): provides radiosensitisation; IC50 (ATR/ATRIP): > 100 µM; reduction in clonogens/gram of tumour, compound with radiation compared to radiation alone ([3]; IP 50 mg/kg 15 min before and 6 h after 13 Gy whole-body irradiation): significant (p=0.005) additional reduction; reduction in clonogens/gram of tumour tissue, compound alone ([3]; IP 2 x 50 mg/kg, no radiation, compared to DMSO control): no reduction; S50 (UT-SCC-54C cells [4]): 0.34 µM; tumour growth inhibition in combination with radiation compared to radiation alone ([5]; PO 2×100 mg/kg, 10 Gy (P=0.007)): significant tumour growth inhibition; tumour growth inhibition in combination with radiation compared to radiation alone ([5]; PO 2×400 mg/kg, 10 Gy (P=0.03)): significant tumour growth inhibition; tumour growth inhibition, compound alone ([5]; PO, compared to DMSO control, FIG. 12A): little additional tumour growth inhibition; effect in unirradiated HAP1 cells (HAP1 cells): little effect; radiosensitisation / differential growth inhibition of HAP1 cells (HAP1 cells): concentration-dependent radiosensitisation

Q: Which “D1 (radiation dose for 1% surviving fraction)” value (UT-SCC-54C cells [2]; 20% O2, compound conc 1 μM) does the source give for `Cc1cc2ncnn2cc1Nc1cc2c(cn1)n(C)c(=O)n2C1CCOCC1` [Compound 125, 3-Methyl-6-((7-methyl-[1,2,4]triazolo[1,5-a]pyridin-6-yl)amino)-1-(tetrahydro-2H-pyran-4-yl)-1,3-dihydro-2H-imidazo[4,5-c]pyridin-2-one] here?
A: The value was 4.90 Gy.

Q: And the “D10 (radiation dose for 10% surviving fraction)” value (UT-SCC-54C cells [2]; 20% O2, compound conc 1 μM)?
A: The value was 2.49 Gy.

Q: And the “SER1 (sensitiser enhancement ratio at 1% surviving fraction)” value (UT-SCC-54C cells [2]; 20% O2, compound conc 1 μM)?
A: The value was 1.77.

Q: And the “SER10 (sensitiser enhancement ratio at 10% surviving fraction)” value (UT-SCC-54C cells [2]; 20% O2, compound conc 1 μM)?
A: Its value is 2.17.

Q: And the “Plating efficiency drug/no drug” value (UT-SCC-54C cells [2]; 20% O2, compound conc 1 μM, no radiation)?
A: The value was 1.02.

Q: And the IC50 (ATR/ATRIP)?
A: The IC50 was over 1 µM.

Q: What about the IC50 (human DNA-PK; 10 μM ATP, 10 μg/ml DNA, mean of two replicates, Table 12, read-out: Inhibition of kinase activity (as IC50) DNA-PK (converted)) of the same molecule?
A: The IC50 was 0.0143 µM.

Q: And the IC50 (human DNA-PK; HotSpot assay Reaction Biology Corp., Table 15, read-out: Inhibition of PIKK kinase activity DNA-PK)?
A: The IC50 was 0.0143 µM.

Q: What about the remaining activity at 1 µM (ATM) of the same molecule?
A: The remaining activity at 1 µM was 74%.

Q: And the “radiosensitisation / differential growth inhibition of DNA-PK null HAP1 line” value (HAP1/PRKDC−/− cells; 3 Gy, HAP1/PRKDC−/−)?
A: The value was “did not radiosensitise”.

Q: What about the IC50 (HAP1/PRKDC−/− cells; Homo sapiens, HAP1) of the same molecule?
A: The IC50 was over 10 µM.

Q: And the IC50 (UT-SCC-54C cells [4]; Homo sapiens, read-out: IC50)?
A: Its IC50 is over 10 µM.

Q: And the “S50” value (UT-SCC-54C cells [4])?
A: Its value is 0.67 µM.

Q: What about the IC50 (human PI3Kα (p110α/p85α)) of the same molecule?
A: Its IC50 is 10.7 µM.

Q: What about the “effect in unirradiated HAP1 cells” value (HAP1 cells) of the same molecule?
A: The value was “little effect”.

Q: What about the “radiosensitisation / differential growth inhibition of HAP1 cells” value (HAP1 cells) of the same molecule?
A: The value was “concentration-dependent radiosensitisation”.

Q: And the IC50 (HAP1 cells; Homo sapiens, HAP1, read-out: HAP1 wt IC50)?
A: Its IC50 is over 10 µM.

Q: And the IC50 (human mTOR; Inhibition of PIKK kinase activity mTOR/FRAP (nM), HotSpot assay Reaction Biology Corp., Table 15)?
A: The IC50 was 43900 nM.

Q: And the IC50 (human mTOR; Inhibition of kinase activity (as IC50) mTOR (nM), 10 μM ATP, mean of two replicates, Table 12)?
A: Its IC50 is 43900 nM.
